Reference: publication PMC13185819, “De Novo Multi‐Mechanism Antimicrobial Peptide Design via Multimodal Deep Learning” (Advanced Science, 2026)
≈ marks a conversion by molar mass, not a printed value. Residues, ends and D or L forms follow the SMILES beside them.

Columns and labels:
Assay type in all cases: cell-based
[1] = tested on: E. faecium 1042
Description: (§1) Standard strains included S. aureus ATCC33592, S. aureus CICC25138, and Salmonella enterica ATCC14028, which were purchased from the China Center of Industrial Culture Collection (CICC). Standard strains including E.coli CMCC44102, Salmonella enterica CMCC50071, and S. aureus CMCC26003 were purchased from the National Center for Medical Culture Collections (CMCC). […] All experiments using the above strains were carried out in a BSL‐2 laboratory. The clinical laboratory of Qilu Hospital detected bacterial resistance to various antibiotics. All strains were streaked on Nutrient Broth (NB) agar medium and incubated overnight at 37°C.
(§2) The antimicrobial activity of the peptides was examined in sterile 96‐well plates using the broth microdilution according to the CLSI standard. The colonies were suspended in saline solution, the turbidity was adjusted to McFarland 0.5 to reach a bacterial concentration of 10^8 CFU/mL, and again diluted 100 times for the inhibition test. Then, 50 µL of bacterial suspension at 1 × 10^6 CFU/mL was incubated with the same volume of different concentrations of peptide solution [serial twofold dilutions in Mueller–Hinton Broth (Hopebio)]. […] All experiments were performed with three independent replicates.

[2] = tested on: E. faecium 21
Description: as §1, §2

[3] = tested on: E.coli 110
Description: as §1, §2

[4] = tested on: E.coli 208
Description: as §1, §2

[5] = tested on: K. pneumoniae 7713
Description: as §1, §2

[6] = tested on: P. aeruginosa 112
Description: as §1, §2

[7] = tested on: P. aeruginosa 116
Description: as §1, §2

[8] = tested on: P. aeruginosa 119
Description: as §1, §2

[9] = tested on: S. aureus 103
Description: as §1, §2

[10] = tested on: S. aureus 129
Description: as §1, §2

[11] = tested on: S. aureus ATCC33592
Description: as §1, §2

[12] = tested on: S. aureus CICC25138
Description: as §1, §2

SMILES	MIC (μg/mL) E. faecium 1042 [1]	MIC (μg/mL) E. faecium 21 [2]	MIC (μg/mL) E.coli 110 [3]	MIC (μg/mL) E.coli 208 [4]	MIC (μg/mL) K. pneumoniae 7713 [5]	MIC (μg/mL) P. aeruginosa 112 [6]	MIC (μg/mL) P. aeruginosa 116 [7]	MIC (μg/mL) P. aeruginosa 119 [8]	MIC (μg/mL) S. aureus 103 [9]	MIC (μg/mL) S. aureus 129 [10]	MIC (μg/mL) S. aureus ATCC33592 [11]	MIC (μg/mL) S. aureus CICC25138 [12]
CC[C@H](C)[C@H](NC(=O)[C@H](CCCCN)NC(=O)[C@H](Cc1c[nH]c2ccccc12)NC(=O)[C@@H](N)CCCCN)C(=O)N[C@@H](CCCCN)C(=O)N[C@@H](Cc1c[nH]c2ccccc12)C(=O)N1CCC[C@H]1C(=O)N[C@@H](CO)C(=O)N[C@@H](CC(N)=O)C(=O)N[C@@H](Cc1c[nH]c2ccccc12)C(=O)N[C@@H](Cc1ccccc1)C(=O)N[C@H](C(=O)N[C@@H](CCCCN)C(=O)N[C@@H](CC(C)C)C(N)=O)[C@@H](C)O [QLX-3DV-3] (H-KWKIKWPSNWFTKL-NH2)	8 µg/mL (≈ 4.3 µM)	8 µg/mL (≈ 4.3 µM)	16 µg/mL (≈ 8.6 µM)	8 µg/mL (≈ 4.3 µM)	16 µg/mL (≈ 8.6 µM)	32 µg/mL (≈ 17.2 µM)	16 µg/mL (≈ 8.6 µM)	32 µg/mL (≈ 17.2 µM)	32 µg/mL (≈ 17.2 µM)	64 µg/mL (≈ 34.4 µM)	32 µg/mL (≈ 17.2 µM)	32 µg/mL (≈ 17.2 µM)
CC[C@H](C)[C@H](NC(=O)[C@H](CCCCN)NC(=O)[C@H](Cc1c[nH]c2ccccc12)NC(=O)[C@@H](N)CCCCN)C(=O)N[C@@H](CCCCN)C(=O)N[C@@H](Cc1c[nH]c2ccccc12)C(=O)N1CCC[C@H]1C(=O)N[C@@H](CO)C(=O)N[C@@H](CCCNC(=N)N)C(=O)N[C@@H](Cc1c[nH]c2ccccc12)C(=O)N[C@@H](Cc1ccccc1)C(=O)N[C@H](C(=O)N[C@@H](CCCCN)C(=O)N[C@@H](CC(C)C)C(N)=O)[C@@H](C)O [QLX-3DV-4] (H-KWKIKWPSRWFTKL-NH2)	16 µg/mL (≈ 8.41 µM)	8 µg/mL (≈ 4.2 µM)	32 µg/mL (≈ 16.8 µM)	16 µg/mL (≈ 8.41 µM)	16 µg/mL (≈ 8.41 µM)	32 µg/mL (≈ 16.8 µM)	32 µg/mL (≈ 16.8 µM)	32 µg/mL (≈ 16.8 µM)	16 µg/mL (≈ 8.41 µM)	32 µg/mL (≈ 16.8 µM)	32 µg/mL (≈ 16.8 µM)	16 µg/mL (≈ 8.41 µM)
CC[C@H](C)[C@H](NC(=O)[C@H](CCCCN)NC(=O)[C@H](Cc1c[nH]c2ccccc12)NC(=O)[C@@H](N)CCCCN)C(=O)N[C@@H](CCCCN)C(=O)N[C@@H](CCCNC(=N)N)C(=O)N1CCC[C@H]1C(=O)N[C@H](C(=O)N[C@@H](CCCCN)C(=O)N[C@@H](Cc1c[nH]c2ccccc12)C(=O)N[C@@H](Cc1ccccc1)C(=O)N[C@H](C(=O)N[C@@H](CCSC)C(=O)N[C@@H](CC(C)C)C(N)=O)[C@@H](C)O)C(C)C [QLX-3DV-5] (H-KWKIKRPVKWFTML-NH2)	32 µg/mL (≈ 17.2 µM)	8 µg/mL (≈ 4.3 µM)	8 µg/mL (≈ 4.3 µM)	8 µg/mL (≈ 4.3 µM)	8 µg/mL (≈ 4.3 µM)	16 µg/mL (≈ 8.6 µM)	128 µg/mL (≈ 68.8 µM)	64 µg/mL (≈ 34.4 µM)	32 µg/mL (≈ 17.2 µM)	128 µg/mL (≈ 68.8 µM)	64 µg/mL (≈ 34.4 µM)	64 µg/mL (≈ 34.4 µM)
CC[C@H](C)[C@H](NC(=O)[C@H](CCCCN)NC(=O)[C@H](Cc1c[nH]c2ccccc12)NC(=O)[C@@H](N)CCCCN)C(=O)N[C@@H](CCCCN)C(=O)N[C@@H](CCC(N)=O)C(=O)N[C@@H](Cc1c[nH]c2ccccc12)C(=O)N[C@H](C(=O)N[C@@H](CCCNC(=N)N)C(=O)N[C@@H](Cc1c[nH]c2ccccc12)C(=O)N[C@@H](Cc1ccccc1)C(=O)N[C@@H](CCCNC(=N)N)C(=O)N[C@@H](CCCCN)C(=O)N[C@@H](CC(C)C)C(N)=O)C(C)C [QLX-3DV-6] (H-KWKIKQWVRWFRKL-NH2)	8 µg/mL (≈ 4 µM)	8 µg/mL (≈ 4 µM)	8 µg/mL (≈ 4 µM)	4 µg/mL (≈ 2 µM)	16 µg/mL (≈ 7.99 µM)	32 µg/mL (≈ 16 µM)	16 µg/mL (≈ 7.99 µM)	128 µg/mL (≈ 64 µM)	16 µg/mL (≈ 7.99 µM)	16 µg/mL (≈ 7.99 µM)	16 µg/mL (≈ 7.99 µM)	16 µg/mL (≈ 7.99 µM)
CC[C@H](C)[C@H](NC(=O)[C@H](CCCCN)NC(=O)[C@H](CCCNC(=N)N)NC(=O)[C@@H](N)CCCCN)C(=O)N[C@@H](CCCCN)C(=O)N[C@@H](Cc1c[nH]c2ccccc12)C(=O)N[C@@H](CCCCN)C(=O)N[C@H](C(=O)N[C@@H](CCCNC(=N)N)C(=O)N[C@@H](Cc1c[nH]c2ccccc12)C(=O)N[C@@H](Cc1ccccc1)C(=O)N[C@H](C(=O)N[C@@H](Cc1ccc(O)cc1)C(=O)N[C@@H](CC(C)C)C(N)=O)[C@@H](C)O)C(C)C [QLX-3DV-7] (H-KRKIKWKVRWFTYL-NH2)	8 µg/mL (≈ 4.1 µM)	8 µg/mL (≈ 4.1 µM)	16 µg/mL (≈ 8.2 µM)	32 µg/mL (≈ 16.4 µM)	16 µg/mL (≈ 8.2 µM)	32 µg/mL (≈ 16.4 µM)	8 µg/mL (≈ 4.1 µM)	64 µg/mL (≈ 32.8 µM)	16 µg/mL (≈ 8.2 µM)	16 µg/mL (≈ 8.2 µM)	16 µg/mL (≈ 8.2 µM)	16 µg/mL (≈ 8.2 µM)
CC[C@H](C)[C@H](NC(=O)[C@H](CCCCN)NC(=O)[C@H](CCCNC(=N)N)NC(=O)[C@@H](N)CCCCN)C(=O)N[C@@H](CCCCN)C(=O)N[C@@H](Cc1c[nH]c2ccccc12)C(=O)N[C@@H](Cc1c[nH]c2ccccc12)C(=O)N[C@H](C(=O)N[C@@H](CCCNC(=N)N)C(=O)N[C@@H](Cc1c[nH]c2ccccc12)C(=O)N[C@H](C(=O)N[C@H](C(=O)N[C@@H](CCCCN)C(=O)N[C@@H](CC(C)C)C(N)=O)[C@@H](C)O)[C@@H](C)CC)C(C)C [QLX-3DV-8] (H-KRKIKWWVRWITKL-NH2)	8 µg/mL (≈ 4.12 µM)	4 µg/mL (≈ 2.06 µM)			8 µg/mL (≈ 4.12 µM)	16 µg/mL (≈ 8.25 µM)	8 µg/mL (≈ 4.12 µM)	32 µg/mL (≈ 16.5 µM)	8 µg/mL (≈ 4.12 µM)	8 µg/mL (≈ 4.12 µM)		16 µg/mL (≈ 8.25 µM)
CC[C@H](C)[C@H](NC(=O)[C@H](CCCCN)NC(=O)[C@H](Cc1c[nH]c2ccccc12)NC(=O)[C@@H](N)CCCCN)C(=O)N[C@@H](CCCCN)C(=O)N[C@@H](Cc1c[nH]c2ccccc12)C(=O)N[C@@H](CCCNC(=N)N)C(=O)N[C@H](C(=O)N[C@@H](CCCNC(=N)N)C(=O)N[C@@H](Cc1c[nH]c2ccccc12)C(=O)N[C@@H](Cc1ccccc1)C(=O)N[C@@H](CCCCN)C(=O)N[C@@H](CC(C)C)C(=O)N[C@@H](CC(C)C)C(N)=O)C(C)C [QLX-3DV-9] (H-KWKIKWRVRWFKLL-NH2)	2 µg/mL (≈ 1.01 µM)	2 µg/mL (≈ 1.01 µM)	8 µg/mL (≈ 4.03 µM)	16 µg/mL (≈ 8.05 µM)	16 µg/mL (≈ 8.05 µM)	16 µg/mL (≈ 8.05 µM)	4 µg/mL (≈ 2.01 µM)	16 µg/mL (≈ 8.05 µM)	8 µg/mL (≈ 4.03 µM)	8 µg/mL (≈ 4.03 µM)	16 µg/mL (≈ 8.05 µM)	8 µg/mL (≈ 4.03 µM)
